According to publication PMC4567917 (Bioorganic chemistry, 2015):
Like-named read-outs stand apart in the source and are kept apart here. Values belong to the molecule of their own block, whether it stands above or below them. Non-standard residues stand in square brackets, D forms with d. No end group written: not given here. *: point of attachment. Biotin = O=C1N[C@H]2[C@H](CS[C@H]2CCCCC(=O)*)N1; Dap = NC[C@H](N)C(=O)O; Ahx = NCCCCCC(=O)O

Experiments:
[1] = tested on: GOAT; conditions: ref [33], cited from earlier work; for Km: read-out: published Km, published values
[2] = molecular target: T1, mouse GOAT (Mus musculus, UniProt P0C7A3); assay: Microsomal ghrelin octanoyltransferase assay; conditions: for Km: read-out: Km (apparent) for octanoyl-CoA; for Km / Vmax (apparent) for octanoyl-CoA / Vmax (apparent): 50 μM palmitoyl-CoA, 1 min at 30°C; for Km / Vmax (apparent) for octanoyl-CoA: 25 μg microsome protein; for Vmax (apparent): ghrelin substrate varied, 25 μg microsome protein (2 ng GOAT); for Vmax (apparent) / maximum reaction rate, fold lower than for the natural Ser analogs: 1 μM octanoyl-CoA; for maximum reaction rate, fold lower than for the natural Ser analogs: relative to the Ser3 analog
T1 sequence (P0C7A3 1-435): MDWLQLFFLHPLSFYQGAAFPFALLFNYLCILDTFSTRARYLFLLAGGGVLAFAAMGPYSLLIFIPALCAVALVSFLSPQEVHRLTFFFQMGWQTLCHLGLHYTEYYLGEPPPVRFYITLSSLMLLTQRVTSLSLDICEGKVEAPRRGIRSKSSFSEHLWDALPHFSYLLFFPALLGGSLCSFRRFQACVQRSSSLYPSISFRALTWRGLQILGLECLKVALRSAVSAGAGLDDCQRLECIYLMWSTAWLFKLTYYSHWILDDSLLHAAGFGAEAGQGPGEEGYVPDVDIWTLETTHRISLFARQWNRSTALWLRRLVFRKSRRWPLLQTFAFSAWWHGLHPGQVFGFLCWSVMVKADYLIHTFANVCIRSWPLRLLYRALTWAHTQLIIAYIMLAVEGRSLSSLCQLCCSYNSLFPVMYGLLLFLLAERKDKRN

[3] = cited from earlier work
[4] = molecular target: T1, mouse GOAT; assay: Ghrelin octanoyltransferase assays at varying pH; assay type: biochemical; conditions: 7.5 μM and 100 μM substrate, 1 min, Bis-Tris propane pH 6–9

Molecule: N[C@@H](CO)C(=O)O [Ser]
- sidechain pKa (ROH to RO-) ([3]; ref [37]): ~ 13

Molecule: NCC(N)C(=O)O (stereo not shown) [amino-Ala, 2,3-diaminoproprionic acid]
- sidechain pKa (RNH3+ to RNH2) ([3]; peptide-incorporated residue, ref [36]): ~ 8

Molecule: GS[Dap]FLSPEHQRVQQRKESKKPPAKLQPK(Biotin)G [Dap3-Ghrelin27]
- Vmax (apparent) [2]: 85 ± 5 nmol/min/mg
- maximum reaction rate, fold lower than for the natural Ser analogs [2]: approximately 2 fold

B1: proghrelin-His8: proghrelin with His8 tag; proghrelin is likely the natural substrate for GOAT (protein, UniProt Q9UBU3 24-117, looked up)
pro-form: GSSFLSPEHQRVQQRKESKKPPAKLQPRALAGWLRPEDGGQAEGAEDELEVRFNAPFDVGIKLSGVQYQQHSQALGKFLQDILWEEAKEAPADK
modifications: pro-form His8 tag
- Km [1]: 6 µM

Continued, in another order:

- Km ([2]; vs 10 μM Ghrelin27): 0.44 ± 0.04 µM
- Km ([2]; vs 80 μM Ghrelin10): 0.81 ± 0.04 µM
- Vmax (apparent) for octanoyl-CoA ([2]; vs 10 μM Ghrelin27): 250 ± 8 nmol/min/mg
- Vmax (apparent) for octanoyl-CoA ([2]; vs 80 μM Ghrelin10): 190 ± 4 nmol/min/mg
Molecule: CCCCCCCC(=O)SCCNC(=O)CCNC(=O)[C@H](O)C(C)(C)COP(=O)(O)OP(=O)(O)OC[C@H]1O[C@@H](n2cnc3c(N)ncnc32)[C@H](O)[C@@H]1OP(=O)(O)O [Octanoyl-CoA, reference compound]
- Km [1]: 0.6 µM
- microsomal octanoyl-CoA hydrolysis ([1]; with 50 μM palmitoyl-CoA, under the conditions of the assay): < 25%

- variation of octanoylation rate across pH 6–9 [4]: ≤ 2 fold
- Vmax (apparent) [2]: 74 ± 8 nmol/min/mg
- maximum reaction rate, fold lower than for the natural Ser analogs [2]: approximately 2 fold
Molecule: GS(Dap)FLSPEHQ(Ahx)K(Biotin)G [Dap3-Ghrelin10]

- Vmax (apparent) [2]: 230 ± 10 nmol/min/mg
- fold lower apparent Km relative to Ghrelin10 ([2]; relative to Ghrelin10): 10 fold
Molecule: GSSFLSPEHQRVQQRKESKKPPAKLQPK (Biotin)G (GSSFLSPEHQRVQQRKESKKPPAKLQPK-{Gly(Biotin)}; not fully specified) [Ghrelin27]

- variation of octanoylation rate across pH 6–9 [4]: ≤ 2 fold
- Vmax (apparent) [2]: 160 ± 10 nmol/min/mg
- fold higher apparent Km than Ghrelin27 ([2]; relative to Ghrelin27): ~ 10 fold
Molecule: GSSFLSPEHQ[Ahx]K(Biotin)G [Ghrelin10]
